Test results taken from patent US20140107109A1, “AMINO-DIHYDROTHIAZINE AND AMINO-DIOXIDO DIHYDROTHIAZINE COMPOUNDS AS BETA-SECRETASE ANTAGONISTS AND METHODS OF USE” (Amgen Inc., priority 2012, published 2014).
Where two headings read alike, the source gives them in different places.

How the values were obtained:
[1] = biological target: Beta Secretase enzyme (BACE1) (Homo sapiens, UniProt P56817); assay: In vitro enzymatic BACE FRET assay; assay type: biochemical; details: read-out: BACE1 FRET assay IC50
Summary of the method: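 Readout: dequenched fluorescence (ex 488 nm/[…]) after neutralizing with Tris buffer. Reactions, begun by adding 50 nM quenched peptide substrate spanning the BACE cleavage site, were incubated one hour at pH 4.2 in 0.05 M acetate with 100 uM genapol and 10% final DMSO.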

[2] = system: Aβ40 in conditioned medium of cells stably expressing Amyloid Precursor Protein (APP); assay: In vitro BACE cell-based assay (HEK cell assay), Aβ40 sandwich ELISA; details: Homo sapiens, HEK293
Summary of the method: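 Aβ40 in conditioned medium was quantified by time-resolved fluorescence sandwich ELISA (pAb40 capture 3 h at 4 °C, biotin-6E10 detection 2 h at 4 °C) after 24 h compound exposure of APP-expressing cells. Doses spanned 10 points from 100 μM or 10 μM top, 0.1% DMSO; IC50 was derived from percent of control.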

Cathepsin D (Cat D) = biological target: T1, Cathepsin D (Cat D) (Homo sapiens, UniProt P07339); assay: In vitro enzymatic Cathepsin D (Cat D) FRET assay; assay type: biochemical; details: read-out: CatD IC50
T1 construct: Recombinant Cat D was expressed in CHO cells; made in house; host or cells: CHO cells
Summary of the method: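 FRET read-out: a fluorophore/quencher-labelled peptide substrate is cleaved by 9 nM Cat D (recombinant, CHO-expressed) following a one-hour preincubation with inhibitor dilutions in DMSO. Tris buffer added to neutralize pH ends the reaction before fluorescence measurement.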

Sequence of Beta Secretase enzyme (BACE1) (P56817 46-501): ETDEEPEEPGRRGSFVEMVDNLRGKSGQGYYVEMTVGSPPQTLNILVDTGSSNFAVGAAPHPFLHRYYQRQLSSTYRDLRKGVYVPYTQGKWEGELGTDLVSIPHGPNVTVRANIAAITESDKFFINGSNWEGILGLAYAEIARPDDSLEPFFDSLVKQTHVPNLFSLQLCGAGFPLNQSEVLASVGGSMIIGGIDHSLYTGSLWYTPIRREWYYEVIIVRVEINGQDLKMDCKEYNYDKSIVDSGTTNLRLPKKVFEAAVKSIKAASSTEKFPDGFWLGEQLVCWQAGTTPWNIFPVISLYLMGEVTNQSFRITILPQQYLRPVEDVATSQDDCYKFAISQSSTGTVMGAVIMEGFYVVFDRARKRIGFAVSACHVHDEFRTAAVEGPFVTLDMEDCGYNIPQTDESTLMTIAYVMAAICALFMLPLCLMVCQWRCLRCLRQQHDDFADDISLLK
T1 sequence (P07339 65-412, species assumed): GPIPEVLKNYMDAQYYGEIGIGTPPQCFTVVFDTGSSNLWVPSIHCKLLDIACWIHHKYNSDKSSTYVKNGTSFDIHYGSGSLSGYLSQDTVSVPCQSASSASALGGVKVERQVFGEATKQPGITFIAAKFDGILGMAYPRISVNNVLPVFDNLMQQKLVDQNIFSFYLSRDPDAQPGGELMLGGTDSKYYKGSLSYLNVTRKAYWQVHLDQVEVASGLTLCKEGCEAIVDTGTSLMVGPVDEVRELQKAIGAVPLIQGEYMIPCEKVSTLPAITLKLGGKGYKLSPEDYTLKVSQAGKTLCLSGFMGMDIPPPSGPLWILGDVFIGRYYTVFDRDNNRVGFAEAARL

| Structure (SMILES) | IC50 [1] [µM] | IC50 [2] [µM] | IC50 (Cathepsin D (Cat D)) [µM] | IC50 ([1]; average IC50, enzyme assay) [µM] | IC50 ([2]; average IC50, cell assay) [µM] |
| --- | --- | --- | --- | --- | --- |
| CC1(C)C(N)=N[C@](C)(c2cc(Nc3ccc4c(c3)OC(F)(F)O4)cnc2F)CS1(=O)=O [Example 414, (5R)-5-(5-((2,2-difluoro-1,3-benzodioxol-5-yl)amino)-2-fluoro-3-pyridinyl)-2,2,5-trimethyl-5,6-dihydro-2H-1,4-thiazin-3-amine 1,1-dioxide] | 3.2 | 2.53 | 33.9 | – | – |
| C[C@@]1(c2cc(N)cnc2F)CS(=O)(=O)C2(CCC2)C(N)=N1 [Example 415, (7R)-7-(5-amino-2-fluoro-3-pyridinyl)-7-methyl-5-thia-8-azaspiro[3.5]non-8-en-9-amine 5,5-dioxide] | 14.5 | > 15.6 | 104 | – | – |
| C[C@@]1(c2cc(NC(=O)c3ccc(Cl)cn3)ccc2F)CS(=O)(=O)C2(CCC2)C(N)=N1 [Example 416, N-(3-((7R)-9-amino-7-methyl-5,5-dioxido-5-thia-8-azaspiro[3.5]non-8-en-7-yl)-4-fluorophenyl)-5-chloro-2-pyridinecarboxamide] | 0.00236 | 0.0059 | 59.5 | – | – |
| NC1=N[C@](CF)(c2cc(N)ccc2F)CS(=O)(=O)C12CCC2 [Example 417, (7S)-7-(5-amino-2-fluorophenyl)-7-(fluoromethyl)-5-thia-8-azaspiro[3.5]non-8-en-9-amine 5,5-dioxide] | 2.1 | 3.65 | 69.7 | – | – |
| NC1=N[C@@](CF)(c2cc(Br)ccc2F)CS(=O)(=O)C12CCC2 [Example 418, (7R)-7-(5-bromo-2-fluorophenyl)-7-(fluoromethyl)-5-thia-8-azaspiro[3.5]non-8-en-9-amine 5,5-dioxide] | – | – | > 400 | > 40 | > 15.6 |
| CC1(C)C(N)=N[C@](C)(c2cc(Nc3nccc4cc(OCC(F)(F)F)cnc34)ccc2F)CS1(=O)=O [Example 419, N-(3-((3R)-5-amino-3,6,6-trimethyl-1,1-dioxido-3,6-dihydro-2H-1,4-thiazin-3-yl)-4-fluorophenyl)-3-(2,2,2-trifluoroethoxy)-1,7-naphthyridin-8-amine] | – | – | 631 | 0.00451 | 0.026 |
| CC1(C)C(N)=N[C@](C)(c2cc(Nc3nccc4cc(OCC#N)cnc34)ccc2F)CS1(=O)=O [Example 420, ((8-((3-((3R)-5-amino-3,6,6-trimethyl-1,1-dioxido-3,6-dihydro-2H-1,4-thiazin-3-yl)-4-fluorophenyl)amino)-1,7-naphthyridin-3-yl)oxy)acetonitrile] | – | – | 1260 | 0.00485 | 0.0054 |
| CC1(C)C(N)=N[C@](C)(c2cc(Nc3nccc4cc(OCCF)cnc34)ccc2F)CS1(=O)=O [Example 421, N-(3-((3R)-5-amino-3,6,6-trimethyl-1,1-dioxido-3,6-dihydro-2H-1,4-thiazin-3-yl)-4-fluorophenyl)-3-(2-fluoroethoxy)-1,7-naphthyridin-8-amine] | – | – | 1450 | 0.031 | 0.0115 |
| CCOc1cnc2c(Nc3ccc(F)c([C@]4(C)CS(=O)(=O)C(C)(C)C(N)=N4)c3)nccc2c1 [Example 422, N-(3-((3R)-5-amino-3,6,6-trimethyl-1,1-dioxido-3,6-dihydro-2H-1,4-thiazin-3-yl)-4-fluorophenyl)-3-ethoxy-1,7-naphthyridin-8-amine] | – | – | 958 | 0.0184 | 0.029 |
| C[C@]1(F)C(N)=N[C@](C)(c2cc(Nc3nccc4nc(C(F)(F)F)cnc34)ccc2F)CS1(=O)=O [Example 423, N-(3-((3R,6R)-5-amino-6-fluoro-3,6-dimethyl-1,1-dioxido-3,6-dihydro-2H-1,4-thiazin-3-yl)-4-fluorophenyl)-2-(trifluoromethyl)pyrido[3,4-b]pyrazin-5-amine] | – | – | > 133 | 0.0013 | 0.735 |
| COc1ncc(NC(=O)c2ccccn2)cc1[C@]1(C)CS(=O)(=O)C(C)(C)C(N)=N1 [Example 424, N-(5-((3R)-5-amino-3,6,6-trimethyl-1,1-dioxido-3,6-dihydro-2H-1,4-thiazin-3-yl)-6-methoxy-3-pyridinyl)-2-pyridinecarboxamide] | – | – | 567 | 0.298 | 0.131 |
| CC1(C)C(N)=N[C@](CF)(c2cc(Nc3ncc(F)c4cc(OCC5CC5)cnc34)ccc2F)CS1(=O)=O [Example 431, N-(3-((3S)-5-amino-3-(fluoromethyl)-6,6-dimethyl-1,1-dioxido-3,6-dihydro-2H-1,4-thiazin-3-yl)-4-fluorophenyl)-3-(cyclopropylmethoxy)-5-fluoro-1,7-naphthyridin-8-amine] | – | – | 476 | 0.0012 | 0.1 |
| CC1(C)C(N)=N[C@](CF)(c2cc(Nc3ncc(F)c4cc(OCC(F)(F)F)cnc34)ccc2F)CS1(=O)=O [Example 432, N-(3-((3S)-5-amino-3-(fluoromethyl)-6,6-dimethyl-1,1-dioxido-3,6-dihydro-2H-1,4-thiazin-3-yl)-4-fluorophenyl)-5-fluoro-3-(2,2,2-trifluoroethoxy)-1,7-naphthyridin-8-amine] | – | – | 312 | 0.00247 | 0.187 |
| CC1(C)C(N)=N[C@](CF)(c2cc(Nc3ncc(F)c4cc(O)cnc34)ccc2F)CS1(=O)=O [Example 433, 8-((3-((3S)-5-amino-3-(fluoromethyl)-6,6-dimethyl-1,1-dioxido-3,6-dihydro-2H-1,4-thiazin-3-yl)-4-fluorophenyl)amino)-5-fluoro-1,7-naphthyridin-3-ol] | – | – | 111 | 0.0006 | 0.0314 |
| CC1(C)C(N)=N[C@](CF)(c2cc(Nc3ncc(F)c4cc(OCC5CCC5)cnc34)ccc2F)CS1(=O)=O [Example 434, N-(3-((3S)-5-amino-3-(fluoromethyl)-6,6-dimethyl-1,1-dioxido-3,6-dihydro-2H-1,4-thiazin-3-yl)-4-fluorophenyl)-3-(cyclobutylmethoxy)-5-fluoro-1,7-naphthyridin-8-amine] | – | – | 32.3 | 0.0015 | 0.341 |
| CCOc1cnc2c(Nc3ccc(F)c([C@]4(CF)CS(=O)(=O)C(C)(C)C(N)=N4)c3)ncc(F)c2c1 [Example 435, N-(3-((3S)-5-amino-3-(fluoromethyl)-6,6-dimethyl-1,1-dioxido-3,6-dihydro-2H-1,4-thiazin-3-yl)-4-fluorophenyl)-3-ethoxy-5-fluoro-1,7-naphthyridin-8-amine] | – | – | > 400 | 0.0016 | 0.049 |
| CC(C)COc1cnc2c(Nc3ccc(F)c([C@]4(CF)CS(=O)(=O)C(C)(C)C(N)=N4)c3)ncc(F)c2c1 [Example 436, N-(3-((3S)-5-amino-3-(fluoromethyl)-6,6-dimethyl-1,1-dioxido-3,6-dihydro-2H-1,4-thiazin-3-yl)-4-fluorophenyl)-5-fluoro-3-(2-methylpropoxy)-1,7-naphthyridin-8-amine] | – | – | 61.6 | 0.0043 | 0.626 |
| CC1(C)C(N)=N[C@](CF)(c2cc(Nc3ncc(F)c4cc(OCC(F)F)cnc34)ccc2F)CS1(=O)=O [Example 437, N-(3-((3S)-5-amino-3-(fluoromethyl)-6,6-dimethyl-1,1-dioxido-3,6-dihydro-2H-1,4-thiazin-3-yl)-4-fluorophenyl)-3-(2,2-difluoroethoxy)-5-fluoro-1,7-naphthyridin-8-amine] | – | – | > 1.65 | 0.00223 | 0.0643 |
| CCOc1cnc2c(Nc3ccc(F)c([C@]4(CF)CS(=O)(=O)C5(CCC5)C(N)=N4)c3)ncc(F)c2c1 [Example 438, N-(3-((7S)-9-amino-7-(fluoromethyl)-5,5-dioxido-5-thia-8-azaspiro[3.5]non-8-en-7-yl)-4-fluorophenyl)-3-ethoxy-5-fluoro-1,7-naphthyridin-8-amine] | – | – | > 1.65 | 0.00382 | 0.198 |
| CC1(C)C(N)=N[C@](C)(c2cc(Sc3ncccc3F)ccc2F)CS1(=O)=O [Example 439, (5R)-5-(2-fluoro-5-((3-fluoro-2-pyridinyl)sulfanyl)phenyl)-2,2,5-trimethyl-5,6-dihydro-2H-1,4-thiazin-3-amine 1,1-dioxide] | – | – | 215 | 0.375 | 0.99 |
| CC1(C)C(N)=N[C@](C)(c2cc(Sc3cc(C#N)ccn3)ccc2F)CS1(=O)=O [Example 440, 2-((3-((3R)-5-amino-3,6,6-trimethyl-1,1-dioxido-3,6-dihydro-2H-1,4-thiazin-3-yl)-4-fluorophenyl)sulfanyl)-4-pyridinecarbonitrile] | – | – | 218 | 0.566 | 0.679 |
| CC1(C)C(N)=N[C@](C)(c2cc(Nc3nccc4nc(OCCF)cnc34)ccc2F)CS1(=O)=O [Example 441, N-(3-((3R)-5-amino-3,6,6-trimethyl-1,1-dioxido-3,6-dihydro-2H-1,4-thiazin-3-yl)-4-fluorophenyl)-2-(2-fluoroethoxy)pyrido[3,4-b]pyrazin-5-amine] | – | – | 407 | 0.00534 | 0.0138 |
| CC1(C)C(N)=N[C@](C)(c2cc(Nc3nccc4nc(OCC(F)(F)F)cnc34)ccc2F)CS1(=O)=O [Example 442, N-(3-((3R)-5-amino-3,6,6-trimethyl-1,1-dioxido-3,6-dihydro-2H-1,4-thiazin-3-yl)-4-fluorophenyl)-2-(2,2,2-trifluoroethoxy)pyrido[3,4-b]pyrazin-5-amine] | – | – | 389 | 0.00322 | 0.0319 |
